Data: US12240862B2, “Inhibitors of peptidylarginine deiminases” (Gilead Sciences, Inc., priority 2020, dated 2025)
pIC50: −log10 of the molar value.

Target: T1, human PAD4 (Homo sapiens, UniProt Q9UM07)
T1 construct: human PAD4 (NM_012387), A2P663, was PCR amplified; His-SUMO (N, cleaved yes); made in house; host or cells: E. coli BL21(DE3)
Assay: In vitro PAD4 BAEE biochemical assay
Conditions: human PAD4, BAEE substrate; 5 nM PAD4, 2 mM calcium chloride, 3 mM BAEE; geometric mean of multiple experiments
Summary of the method: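 Ammonia release from BAEE deimination monitored by o-phthalaldehyde amine coupling (1 h, 25 °C) after EDTA stop. Final conditions: 5 nM tag-free recombinant human PAD4 (E. coli), 2 mM CaCl2, 3 mM BAEE, pH 7.6 MOPS with DTT; 30 min compound preincubation, then 2 h reaction at 25 °C.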

T1 sequence (Q9UM07 2-663): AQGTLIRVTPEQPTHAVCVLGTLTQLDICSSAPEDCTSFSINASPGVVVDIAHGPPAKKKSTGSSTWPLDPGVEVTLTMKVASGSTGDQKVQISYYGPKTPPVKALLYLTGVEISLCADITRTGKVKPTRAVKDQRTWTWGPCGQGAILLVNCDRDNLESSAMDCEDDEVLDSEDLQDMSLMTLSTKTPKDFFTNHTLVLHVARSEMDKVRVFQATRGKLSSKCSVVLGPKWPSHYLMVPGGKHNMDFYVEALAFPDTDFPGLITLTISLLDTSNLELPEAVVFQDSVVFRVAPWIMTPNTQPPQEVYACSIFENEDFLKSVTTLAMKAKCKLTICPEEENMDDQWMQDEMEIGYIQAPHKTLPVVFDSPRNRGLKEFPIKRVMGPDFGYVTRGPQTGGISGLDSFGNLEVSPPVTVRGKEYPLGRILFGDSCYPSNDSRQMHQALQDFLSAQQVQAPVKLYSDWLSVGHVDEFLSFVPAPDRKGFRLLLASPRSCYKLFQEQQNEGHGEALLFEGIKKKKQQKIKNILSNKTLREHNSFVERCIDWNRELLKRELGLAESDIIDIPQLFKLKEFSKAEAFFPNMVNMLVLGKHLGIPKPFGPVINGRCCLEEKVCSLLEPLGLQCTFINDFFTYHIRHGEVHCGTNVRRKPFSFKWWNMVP

pIC50	Compound
6.66	COc1cc(C(=O)N2[C@H]3CC[C@@H]2[C@H](N)C3)cc2nc(-c3cc4ccc(C5=CC(=O)N(C)CC5)nc4n3CC3CC3)c(C)n12 [Example 558, 4-[2-[7-[(1~{R},2~{R}, 4~{S})-2-amino-7-azabicyclo[2.2.1]heptane-7-carbonyl]-5-methoxy-3-methylimidazo[1,2-a]pyridin-2-yl]-1-(cyclopropylmethyl)pyrrolo [2,3-b]pyridin-6-yl]-1-methyl-2,3-dihydropyridin-6-one]
6.29	COc1cc(C(=O)N2[C@H]3CC[C@@H]2[C@H](N)C3)cc2nc(-c3cc4ccc(-c5cccnc5C(F)(F)F)nc4n3CC3CC3)c(C)n12 [Example 551, [(1~{R},2~{R},4~{S})-2-amino-7-azabicyclo [2.2.1]heptan-7-yl]-[2-[1-(cyclopropylmethyl)-6-[2-(trifluoromethyl)pyridin-3-yl]pyrrolo[2,3-b]pyridin-2-yl]-5-methoxy-3-methylimidazo [1,2-a]pyridin-7-yl] methanone]
6.82	CCc1ccc2cc(-c3nc4cc(C(=O)N5[C@H]6CC[C@@H]5[C@H](N)C6)cc(OC)n4c3N)n(CC3CC3)c2n1 [Example 552, [(1~{R},2~{R},4~{S})-2-amino-7-azabicyclo [2.2.1]heptan-7-yl]-[3-amino-2-[1-(cyclopropylmethyl)-6-ethylpyrrolo[2,3-b]pyridin-2-yl]-5-methoxyimidazo [1,2-a]pyridin-7-yl]methanone]
7.55	COc1cc(C(=O)N2[C@H]3CC[C@@H]2[C@H](N)C3)cc2nc(-c3cc4ccc([C@@H](C)NC(=O)c5cnn6c5CCC6)nc4n3CC3CC3)c(C)n12 [Example 74, ~{N}-[(1~{R})-1-[2-[7-[(1~{R},2~{R},4~{S})-2-amino-7-azabicyclo[2.2.1]heptane-7-carbonyl]-5-methoxy-3-methylimidazo [1,2-a]pyridin-2-yl]-1-(cyclopropylmethyl)pyrrolo [2,3-b]pyridin-6-yl]ethyl]-5,6-dihydro-4~{H}-pyrrolo[1,2-b] pyrazole-3-carboxamide]
6.85	COc1cc(C(=O)N2CCC[C@@H](N)C2)cc2nc(-c3cc4ccc([C@H](C)CC(=O)N(C)C)nc4n3CC3CC3)c(C)n12 [Example 534, (3~{R})-3-[2-[7-[(3~{R})-3-aminopiperidine-1-carbonyl]-5-methoxy-3-methylimidazo[1,2-a]pyridin-2-yl]-1-(cyclopropylmethyl)pyrrolo[2,3-b]pyridin-6-yl]-~{N},~{N}-dimethylbutanamide]
7.18	COc1cc(C(=O)N2[C@H]3CC[C@@H]2[C@H](N)C3)cc2nc(-c3cc4ccc([C@@H](C)NC(=O)N5CCCC5)nc4n3CC3CC3)c(C3CC3)n12 [Example 249, ~{N}-[(1~{R})-1-[2-[7-[(1~{R},2~{R},4~{S})-2-amino-7-azabicyclo[2.2.1]heptane-7-carbonyl]-3-cyclopropyl-5-methoxyimidazo[1,2-a]pyridin-2-yl]-1-(cyclopropylmethyl)pyrrolo [2,3-b]pyridin-6-yl]ethyl] pyrrolidine-1-carboxamide]
6.09	COc1cc(C(=O)N[C@H]2CNC[C@@H](C)C2)cc2nc(-c3cc4ccc(N(C(F)F)S(C)(=O)=O)nc4n3CC3CC3)c(C)n12 [Example 317, 2-[1-(cyclopropylmethyl)-6-[difluoromethyl (methylsulfonyl)amino]pyrrolo[2,3-b]pyridin-2-yl]-5-methoxy-3-methyl-~{N}-[(3~{R},5~{S})-5-methylpiperidin-3-yl] imidazo[1,2-a]pyridine-7-carboxamide]
5.52	COc1cc(C(=O)N2[C@H]3CC[C@H](N)[C@@H]2CC3)cc2nc(-c3cc4ccc(N(C(F)F)S(C)(=O)=O)nc4n3CC3CC3)c(C)n12 [Example 408, ~{N}-[2-[7-[(1~{S},2~{S}, 5~{S})-2-amino-8-azabicyclo[3.2.1]octane-8-carbonyl]-5-methoxy-3-methylimidazo[1,2-a]pyridin-2-yl]-1-(cyclopropylmethyl)pyrrolo [2,3-b]pyridin-6-yl]-~{N}-(difluoromethyl) methanesulfonamide]
6.63	COc1cc(C(=O)N2[C@H]3CC[C@@H]2[C@H](N)[C@H](OC)C3)cc2nc(-c3cc4ccc([C@@H](C)NC(=O)C56CC(F)(C5)C6)nc4n3CC3CC3)c(C)n12 [Example 183, ~{N}-[(1~{R})-1-[2-[7-[(1~{R},2~{S},3~{R}, 5~{S})-2-amino-3-methoxy-8-azabicyclo [3.2.1]octane-8-carbonyl]-5-methoxy-3-methylimidazo [1,2-a]pyridin-2-yl]-1-(cyclopropylmethyl)pyrrolo [2,3-b]pyridin-6-yl]ethyl]-3-fluorobicyclo[1.1.1]pentane-1-carboxamide]
6.05	CNC(=O)COc1ccc2cc(-c3nc4cc(C(=O)N5CCC[C@@H](N)C5)cc(OC)n4c3C)n(CC3CC3)c2n1 [Example 622, 2-[2-[7-[(3~{R})-3-aminopiperidine-1-carbonyl]-5-methoxy-3-methylimidazo[1,2-a]pyridin-2-yl]-1-(cyclopropylmethyl)pyrrolo [2,3-b]pyridin-6-yl] oxy-~{N}-methylacetamide]
7.22	COc1cc(C(=O)N2[C@H]3CC[C@@H]2[C@H](N)C3)cc2nc(-c3cc4ccc([C@@H](C)NC(=O)C5(C)CC(F)(F)C5)nc4n3CC3CC3)c(C)n12 [Example 84, ~{N}-[(1~{R})-1-[2-[7-[(1~{R},2~{R},4~{S})-2-amino-7-azabicyclo[2.2.1]heptane-7-carbonyl]-5-methoxy-3-methylimidazo [1,2-a]pyridin-2-yl]-1-(cyclopropylmethyl)pyrrolo [2,3-b]pyridin-6-yl]ethyl]-3,3-difluoro-1-methylcyclobutane-1-carboxamide]
6.31	COc1cc(C(=O)N2CC[C@H]3CCCN[C@H]3C2)cc2nc(-c3cc4ccc([C@@H](C)NC(=O)C56CC(F)(C5)C6)nc4n3CC3CC3)c(C)n12 [Example 180, ~{N}-[(1~{R})-1-[2-[7-[(4~{a}~{R},8~{a}~{R})-2,3,4,4~{a},5,6,8,8~{a}-octahydro-1~{H}-1,7-naphthyridine-7-carbonyl]-5-methoxy-3-methylimidazo [1,2-a]pyridin-2-yl]-1-(cyclopropylmethyl)pyrrolo [2,3-b]pyridin-6-yl]ethyl]-3-fluorobicyclo[1.1.1]pentane-1-carboxamide]
7.02	CCOC(=O)CC(C)c1ccc2cc(-c3nc4cc(C(=O)N5[C@H]6CC[C@@H]5[C@H](N)C6)cc(OC)n4c3C)n(CC3CC3)c2n1 (some centres unmarked) [Example 559, ethyl 3-[2-[7-[(1~{R}, 2~{R},4~{S})-2-amino-7-azabicyclo[2.2.1]heptane-7-carbonyl]-5-methoxy-3-methylimidazo[1,2-a]pyridin-2-yl]-1-(cyclopropylmethyl)pyrrolo[2,3-b]pyridin-6-yl]butanoate]
6.46	COc1cc(C(=O)N2CCC[C@@H](N)C2)cc2nc(-c3cc4ccc(-c5cccnc5-c5ccccc5)nc4n3CC3CC3)c(C)n12 [Example 607, [(3~{R})-3-aminopiperidin-1-yl]-[2-[1-(cyclopropylmethyl)-6-(2-phenylpyridin-3-yl)pyrrolo [2,3-b]pyridin-2-yl]-5-methoxy-3-methylimidazo[1,2-a]pyridin-7-yl]methanone]
6.63	COc1cc(C(=O)N2C[C@H]3CCC[C@@H]2[C@@H]3N)cc2nc(-c3cc4ccc(N(C(F)F)S(C)(=O)=O)nc4n3CC3CC3)c(C)n12 [Example 330, N-[2-[7-[(1R,5R,8R)-8-amino-6-azabicyclo[3.2.1]octane-6-carbonyl]-5-methoxy-3-methyl-imidazo [1,2-a]pyridin-2-yl]-1-(cyclopropylmethyl)pyrrolo [2,3-b]pyridin-6-yl]-N-(difluoromethyl) methanesulfonamide]
7.07	COC(=O)N(C)c1ccc2cc(-c3nc4cc(C(=O)N5[C@H]6CC[C@@H]5[C@H](N)C6)cc(OC)n4c3C)n(CC3CC3)c2n1 [Example 465, methyl~{N}-[2-[7-[(1~{R},2~{R},4~{S})-2-amino-7-azabicyclo[2.2.1]heptane-7-carbonyl]-5-methoxy-3-methylimidazo [1,2-a]pyridin-2-yl]-1-(cyclopropylmethyl)pyrrolo [2,3-b]pyridin-6-yl]-~{N}-methylcarbamate]
6.07	~{N}-[2-[7-[(3~{S}, 4~{R})-3-amino-4- hydroxypiperidine-1- carbonyl]-3-ethyl- 5-methoxyimidazo[1,2- a]pyridin-2-yl]-1- (cyclopropylmethyl)pyrrolo [2,3-b]pyridin-6-yl]-~{N}- (difluoromethyl) methanesulfonamide [Example 400]
4.37	CCc1ccc2cc(-c3nc4cc(C(=O)N5[C@H]6CC[C@@H]5[C@H](N)C6)cc(OC)n4c3C)[nH]c2n1 [Example 506, [(1~{R},2~{R},4~{S})-2-amino-7-azabicyclo [2.2.1]heptan-7-yl]-[2-(6-ethyl-1~{H}-pyrrolo[2,3-b]pyridin-2-yl)-5-methoxy-3-methylimidazo[1,2-a]pyridin-7-yl]methanone]
6.75	COc1cc(C(=O)N2CC[C@@H](OC)[C@@H](N)C2)cc2nc(-c3cc4ccc(N(C(F)F)S(C)(=O)=O)nc4n3CC3CC3)c(C)n12 [Example 335, ~{N}-[2-[7-[(3~{S}, 4~{R})-3-amino-4-methoxypiperidine-1-carbonyl]-5-methoxy-3-methylimidazo [1,2-a]pyridin-2-yl]-1-(cyclopropylmethyl)pyrrolo [2,3-b]pyridin-6-yl]-~{N}-(difluoromethyl) methanesulfonamide]
6.47	COc1cc(C(=O)N2[C@H]3CC[C@@H]2[C@H](N)[C@H](O)C3)cc2nc(-c3cc4ccc(N(C(F)F)S(C)(=O)=O)nc4n3CC3CC3)c(C)n12 [Example 416, ~{N}-[2-[7-[(1~{R},2~{S},3~{R}, 5~{S})-2-amino-3-hydroxy-8-azabicyclo[3.2.1]octane-8-carbonyl]-5-methoxy-3-methylimidazo[1,2-a]pyridin-2-yl]-1-(cyclopropylmethyl)pyrrolo [2,3-b]pyridin-6-yl]-~{N}-(difluoromethyl) methanesulfonamide]
